Data taken from patent US20180072770A1, “Influenza Virus Binding Peptides” (priority 2014, published 2018).
No end group written: not given here.

How the values were obtained:
A/Aichi/2/68 H3N2 (X31) = assay type: binding, influenza A virus
A/NewYork/55/2004 H3N2 = assay type: binding, influenza A virus
A/California/7/2009 H1N1 = assay type: binding, influenza A virus
[1] = test system: X31 virus (A/Aichi/2/68 H3N2); test: Inhibition of influenza A virus binding to fetuin (SPR)
A/Panama/2007/1999 H3N2 = assay type: cell-based, influenza A virus; details: read-out: Mean Ki(HAI)
influenza A virus = assay type: cell-based
A/Aichi/2/68 H3N2 [2] = assay type: cell-based, influenza A virus
A/Aichi/2/68 H3N2 [3] = test: Viral fusion with human erythrocyte ghosts (R18 dequenching); assay type: cell-based, influenza A virus; details: concentration-dependent, maximum; pH 5; FIG. 7
A/Aichi/2/68 H3N2 [4] = test: Infectivity inhibition assay (MTS, MDCK II cells); assay type: cell-based, influenza A virus; details: MOI 0.05, 24 h, concentration dependent, maximum, FIG. 8
[5] = test system: A/Mute swan/Germany/R901/06 H7N1
A/Aichi/2/68 H3N2 [6] = test system: A/Aichi/2/68 H3N2
[7] = test system: A/Mute swan/Germany/R901/06 K3141 H7N1
[8] = test system: influenza A virus strains H3N2 (X31), H7N1, H1N1, H5N1, H3N2 (Victoria), H3N2 (NY); assay type: binding

## KKKKFYGYDVFF-NH2 [SEQ ID NO:28]
A/Aichi/2/68 H3N2 (X31)
  factor of increased binding signal in comparison to SEQ ID NO:1: 2
A/NewYork/55/2004 H3N2
  factor of enhanced binding capability in comparison to SEQ ID NO:1: 4
A/California/7/2009 H1N1
  binding preference among the three tested strains: shifts the binding preference strongly to H1N1/2009
  factor of enhanced binding capability in comparison to SEQ ID NO:1: 24
[1]; A/Aichi/2/68 H3N2 (X31), SPR, read-out: Inhibition of binding to fetuin (IC50, RB)
  IC50: 20 µM
[1]; X31
  fold lower IC50,RB in comparison to reference peptide SEQ ID NO:1: about 4.5 fold
A/Panama/2007/1999 H3N2
  Ki: 0.1 µM
Influenza A virus
  fold lower Ki(HAI) than the conventional peptides (SEQ ID NO:100, 101, 102): up to 1,600 fold
A/Aichi/2/68 H3N2 [2]
  inhibition of viral attachment to single red blood cells: up to 50%
A/Aichi/2/68 H3N2 [3]
  inhibition of fusion efficiency with erythrocyte ghosts: up to 40%
A/Aichi/2/68 H3N2 [4]
  protection from infection / reduction of infectivity: up to 55%
[5]
  IC50: 30 µM
A/Aichi/2/68 H3N2 [6]; A/Aichi/2/68
  IC50: 18 µM
A/Aichi/2/68 H3N2 [6]; read-out: Mean Ki(HAI)
  Ki: 31.9 µM
[7]
  IC50: 23 µM
[7]; read-out: Mean Ki(HAI)
  Ki: 36.5 µM

## SEQ ID NO:23 (FYYYDVFY; Synthetically produced peptide)
A/California/7/2009 H1N1
  binding preference among the three tested strains: shifts the binding preference strongly to H1N1/2009

## SEQ ID NO:29 (FYYYDVFF; Synthetically produced peptide)
A/California/7/2009 H1N1
  binding preference among the three tested strains: shifts the binding preference strongly to H1N1/2009

## SEQ ID NO:33 (FYGYDVAF; Synthetically produced peptide)
[8]
  relative binding preference for virus strains, in descending order: H7N1 over H3N2 (X31), H3N2 (NY) and H5N1

## SEQ ID NO:34 (FLGYDVFF; Synthetically produced peptide)
[8]
  relative binding preference for virus strains, in descending order: H3N2 (NY) over H5N1, H3N2 (X31) and H7N1

## SEQ ID NO:76 (FYDYDRFY; Synthetically produced peptide)
A/Aichi/2/68 H3N2 (X31)
  virus binding (SPR): does not bind
A/NewYork/55/2004 H3N2
  virus binding (SPR): specifically binds
A/California/7/2009 H1N1
  virus binding (SPR): does not bind

## SEQ ID NO:97 (FYGYDVKF; Synthetically produced peptide)
[8]
  relative binding preference for virus strains, in descending order: H5N1 over H7N1, H3N2 (X31) and H3N2 (NY)
